From patent US5889053A, “Farnesyl transferase inhibitors, preparation thereof and pharmaceuticals compositions containing said inhibitors” (Rhone-Poulenc Rorer S.A., priority 1995, dated 1999)

The compounds below were run against T1, human farnesyl transferase (Homo sapiens, UniProt P49354+P49356) (assay: Inhibition of farnesyl transferase and of farnesylation of the Ras protein ([3H]farnesyl transfer from [3H]FPP to p21 H-Ras)). Details: p21 H-Ras substrate, 20 min at 37° C., 9 concentrations; read-out: Inhibitory activity IC50.
T1 construct: human farnesyl transferase purified from THP1 cell cultures; endogenous in cells; host or cells: THP1
Type: biochemical
Protocol: Farnesyl transferase activity is determined by the quantity of [^3 H]farnesyl transferred from [^3 H]farnesyl pyrophosphate ([^3 H]FPP) to the p21 H-Ras protein. The standard reaction mixture is composed, for a final volume of 60 μl, of 50 mM Tris-HCl, 5 mM MgCl2, 5 mM dithiothreitol, 0.2% octyl β-D-glucopyranoside, 200 picomol p21 H-Ras, 4.5 picomol [^3 H]FPP (activity 61000 dpm/picomol).
Reaction is initiated by adding approximately 5 ng of human farnesyl transferase purified from THP1 cell cultures. After incubation for 20 minutes at 37° C. in a microtitration plate containing 96 1-cm^3 wells per plate (Titer Plate®, Beckman), the reaction is stopped by adding 0.4 cm^3 of 0.1% SDS in methanol at 0° C. The mixture is then treated with 0.4 cm^3 of 30% trichloroacetic acid (TCA) in methanol. The plates are left in ice for 1 hour. The precipitated contents are then retained on Filtermat®, Pharmacia) glass fibre membranes with the filtration unit (Combi Cell Harvester®, Skatron), and rinsed with 6% trichloroacetic acid in distilled water. The membranes are dried in a microwave oven, then impregnated with scintillation medium by melting of Meltilex® (Pharmacia) under hot air, and lastly counted in cpm in a β-Plate counter® (LKB). Each test is repeated 3 times.
The unit of activity is defined as 1 picomole of [^3 H]FPP transferred to p21 H-Ras in 20 minutes.
The percentage inhibition values are obtained by comparison of the tests with and without inhibitor after deduction of blanks, the IC50 values being measured on the basis of the inhibitions obtained with 9 different concentrations using Enzfitter® or Grafit® software.

Compound | IC50 [nM]
CSCC[C@H](NC(=O)c1ccc(NC[C@@H](N)CS)c2ccccc12)C(=O)O [Example 1, N-[4-(2(R)-amino-3-mercaptopropylamino)naphthyl-1-carbonyl]-L-methionine] | 23
COC(=O)[C@H](CCSC)NC(=O)c1ccc(NC[C@@H](N)CS)c2ccccc12 [Example 2, methyl ester of N-[4-(2(R)-amino-3-mercaptopropylamino)naphthyl-1-carbonyl]-L-methionine] | 100
CSCC[C@H](NC(=O)c1cc(NC[C@@H](N)CS)cc2ccccc12)C(=O)O [Example 4, N-[3-(2(R)-amino-3-mercaptopropylamino)naphthyl-1-carbonyl]-L-methionine] | 31

Next, values leading:

IC50 [nM] | Compound
300 | COC(=O)[C@H](CCSC)NC(=O)c1cc(NC[C@@H](N)CS)cc2ccccc12 [Example 5, methyl ester of N-[3-(2(R)-amino-3-mercaptopropylamino)naphthyl-1-carbonyl]-L-methionine]
55 | CSCC[C@H](NC(=S)c1cc(NC[C@@H](N)CS)cc2ccccc12)C(=O)O [Example 6, N-[3-(2(R)-amino-3-mercaptopropylamino)naphthyl-1-thiocarbonyl]-L-methionine]

What follows are compounds tested on farnesylation of the Ras protein in THAC cells (CCL 39 cells transfected with activated Ha-Ras) (assay: Activity against cells: inhibition of farnesylation of the Ras protein in THAC cells (Western blot)). Details: CCL39, 24 h at 37° C.
Type: cell-based
Protocol: The activity against cells can be determined in the following way:
The cell line is the THAC line (CCL 39 cells transfected with activated Ha-Ras) according to K. Seuwen et al., EMBO J., 7(1) 161-168 (1988). The cells are cultured in Petri dishes with a diameter of 6 cm containing a DMEM medium, 5% foetal calf serum and 1% G418.
After culturing for 24 hours, the culture medium is changed (with or without the serum) and the product to be studied is added in solution in dimethylformamide (DMF), in the presence or in the absence of DTT (final concentrations of 0.5% in DMF and 0.1 mM in DTT). After culturing for 24 hours at 37° C., the cells are lysed in 1 cm^3 of lysis buffer (20 mM Tris, HCl, 1% Triton X114, 5 mM MgCl2, 7 mM DTT, 150 mM NaCl, pH=7.4). The lysates are clarified by centrifuging at 4000 revolutions/minute for 10 minutes. […] The radioactivity of the bands corresponding to farnesylated Ras and to non-farnesylated Ras makes it possible to determine the percentage of inhibition of farnesylation of the Ras protein.

Compound | inhibition at 10 µM [%]
COC(=O)[C@H](CCSC)NC(=O)c1ccc(NC[C@@H](N)CS)c2ccccc12 [Example 2, methyl ester of N-[4-(2(R)-amino-3-mercaptopropylamino)naphthyl-1-carbonyl]-L-methionine] | 40
